Test system: A673 NR0B1-luciferase reporter, viability-normalised luminescence
Test: suppressors of NR0B1-promoter luciferase reporter, dose response, EWS/Fli inhibitor project, luciferase luminescence, A673 cells, cherry-pick (AID 686920)

SMILES | AC35
Cn1ccc2cc(-c3ccc4ncnc(NCc5cccs5)c4c3)ccc21 | 4.12 µM
C[C@@H]1CN([C@H](C)CO)C(=O)c2cc(NC(=O)Nc3ccccc3)ccc2O[C@@H]1CN(C)Cc1ccc(C(=O)Nc2ccccc2N)cc1 | 8.74 µM
O=c1[nH]c(=O)n(C2C[C@H](O)[C@@H](CO)O2)cc1C(F)(F)F (stereo partly specified) | 4.01 µM
O=C(Nc1ccc(NC(=O)c2cc3ccccc3o2)cc1)c1ccc2c(c1)OCCO2 | 13.2 µM
C(=NNc1ccc2ccccc2n1)c1ccccn1 | 1.55 µM
N#C[C@@H]1[C@H](c2ccc(C#Cc3cccc(F)c3)cc2)[C@@H](CO)N1C(=O)C1CCCC1 | 4.38 µM
Oc1[nH]c2ccc(Br)cc2c1N=NC(=S)N1CCOCC1 | 26.5 µM
N/C(=C\C(=O)c1cc(Cl)ccc1O)C(Cl)(Cl)Cl | 4.64 µM
COc1ccc(Cn2cc3c(-c4ccc(F)cc4)nnc-3c3cc(OC)c(OC)cc32)cc1 | 14.1 µM
COC(=O)C1=C(C)N(Cc2ccccc2C(F)(F)F)C(=NCc2ccc(OC)cc2)NC1c1ccc(C(F)(F)F)cc1 (stereo unspecified) | 29.9 µM
C[C@H]1CN([C@@H](C)CO)S(=O)(=O)c2ccc(C#Cc3ccncc3)cc2O[C@@H]1CN(C)S(=O)(=O)c1ccccc1 | 24.4 µM
C[C@]12CC[C@H](O)C[C@H]1CC[C@@H]1[C@@H]2CC[C@]2(C)[C@@H](C3=CC(=O)OC3)CC[C@]12O | 0.395 µM
Cc1ccc(S(=O)(=O)N(C)C[C@@H]2Oc3ccc(NC(=O)CCCCCC(=O)Nc4ccccc4N)cc3CC(=O)N([C@@H](C)CO)C[C@@H]2C)cc1 | 11 µM
N#CC1=C(N)Oc2cc(N)ccc2C1c1cccc(Br)c1 (stereo unspecified) | 0.542 µM
COc1ccc(C2=NNC(=Nc3cc(S(=O)(=O)N(C)C)ccc3C)SC2)c(OC)c1 | 9.53 µM
CN1c2ccc(-c3ccc(C#N)cc3)cc2[C@H]2[C@H](CCN2S(=O)(=O)c2cccc(F)c2)[C@H]1CO | 1.74 µM
C[C@]12CC[C@H]3[C@@H](CC[C@]4(O)C[C@@H](O)CC[C@]34C=O)[C@@]1(O)CC[C@@H]2C1=CC(=O)OC1 | 0.626 µM
CN(C[C@H]1N[C@@H](CO)[C@@H]1c1ccc(C2=CCCC2)cc1)C(=O)c1cccc(F)c1 | 3.48 µM
COc1ccc2oc(C(=O)NCCc3ccccc3)c(C)c2c1 | 6.25 µM
CO[C@H]1CN(C)C(=O)c2cc(NC(=O)NC(C)C)ccc2OC[C@H](C)N(Cc2ccc(-c3ccccn3)cc2)C[C@@H]1C | 5.22 µM
C[C@H]1CN([C@@H](C)CO)C(=O)c2cc(NS(=O)(=O)c3ccc(Cl)cc3)ccc2O[C@H]1CN(C)Cc1ccc(Cl)c(Cl)c1 | 40.5 µM
O=C(O)CN1C(=O)/C(=C\c2ccccc2OCc2ccc(Cl)cc2Cl)SC1=S | 13.7 µM
CCOC(=O)Cc1csc(NC(=S)NC(=O)c2ccc(C)cc2)n1 | 0.265 µM
CN1C/C(=C/c2ccsc2)C(=O)/C(=C/c2ccsc2)C1 | 9.82 µM

SMILES | AC35
BrC(=C\c1ccccc1)/C=N/n1cnnc1 | 7.17 µM
O=C(N/N=C/c1cnc(N2CCCCC2)s1)c1ccc(C(F)(F)F)cc1 | 56.8 µM
CCOc1ccc(N=C2C(=O)Nc3ccc(C)c(Br)c32)cc1 | 26.4 µM
C[C@@H]1CCCCO[C@H](CN(C)Cc2ccc(C(F)(F)F)cc2)[C@H](C)CN([C@H](C)CO)C(=O)c2cc(NC(=O)CCCN(C)C)ccc2O1 | 11.9 µM
C[C@@H]1CN([C@@H](C)CO)C(=O)Cc2cc(NS(=O)(=O)c3cccs3)ccc2O[C@H]1CN(C)Cc1ccc(Cl)c(Cl)c1 | 3.76 µM
CC1(C(=O)NCc2ccco2)Cc2c(-c3cccc(C(N)=O)c3)ccnc2O1 (stereo unspecified) | 5.37 µM
CN=c1scc(-c2cccs2)n1/N=C/c1ccccc1O | 0.298 µM
Cc1nc(N)nc(N)c1CCCc1ccc(Cl)c(Cl)c1 | 2.49 µM
O=C1C(=O)N(CCS(=O)(=O)c2ccccc2)c2ccccc21 | 20.7 µM
O=C(Nc1ccc(F)cc1)N1CCCCN2[C@@H](CO)[C@H](c3ccc(C4=CCCCC4)cc3)[C@@H]2C1 | 13.3 µM
Nc1ccc2c(c1)OC1(CCCC1)O2 | 6.63 µM
COc1cc(/C=C/C(=O)CC(=O)/C=C/c2ccc(O)c(OC)c2)ccc1O | 7.91 µM
CC(C)(C)C(=O)Nc1ccc(N=Nc2ccccc2)cc1 | 10.7 µM
CN(C)c1ccc2c(c1)[C@@H]1C[C@@H](CC(=O)NCc3ccc(Oc4ccccc4)cc3)O[C@H](CO)[C@@H]1O2 | 5.8 µM
C[C@]12CC[C@H](O)C[C@H]1CC[C@@H]1C2CC[C@]2(C)[C@@H](C3=CC(=O)OC3)[C@@H](O)C[C@]12O (stereo partly specified) | 2.86 µM
CC(=O)OC1CC(OC2C(O)CC(OC3C(O)CC(OC4CCC5(C)C(CCC6C5CC(O)C5(C)C(C7=CC(=O)OC7)CCC65O)C4)OC3C)OC2C)OC(C)C1OC1OC(CO)C(O)C(O)C1O (stereo unspecified) | 0.225 µM
COc1cc(/C=N/NS(=O)(=O)c2ccc3ccccc3c2)ccc1OCc1ccc(C(=O)O)cc1 | 2.91 µM
O=C(N/N=C/c1cccs1)c1n[nH]c2c1CCCC2 | 4.03 µM
CN(c1ccc(NC(=O)CCc2c[nH]c3ccccc23)cc1)c1ccccn1 | 4.96 µM
O=C(Nc1ccccc1F)N1CCCCN2[C@H](CO)[C@H](c3ccc(/C=C/c4ccccc4)cc3)[C@H]2C1 | 14 µM
C[C@H](CO)N1C[C@H](C)[C@H](CN(C)CC2CCCCC2)Oc2ccc(NC(=O)Nc3cccc4ccccc34)cc2C1=O | 43.3 µM
Cc1cccc(CN2C(=O)/C(=C\c3ccc(C(=O)NCCCN4CCN(C)CC4)cc3)Oc3ccccc32)c1 | 11.6 µM
O=C1NC(=S)NC(=O)C1=Cc1cccn1-c1ccc(O)cc1 | 19.9 µM
Cc1nn(Cc2ccccc2Cl)c2sc(C(=O)Nc3ccccc3N3CCOCC3)cc12 | 10.3 µM

SMILES | AC35
C(=N\Nc1nc2ccccc2s1)/c1ccccn1 | 0.77 µM
CCN1/C(=C/C(C)=C/c2sc3ccccc3[n+]2CC)Sc2ccccc21 | 1.56 µM
Cc1csc(NC(=O)CCc2c(C)nc3cc(-c4ccc(Cl)cc4)nn3c2C)n1 | 0.284 µM
Cc1cccc(/C=N/Nc2ccc3ccccc3n2)c1 | 1.6 µM
O=c1c(Cl)cc(Cl)nn1-c1ccccc1 | 8.95 µM
Cc1cc(-c2nc3ccccc3s2)ccc1N | 7.98 µM
CCCCCCCN(c1ccccc1)[C@@H]1C[C@H]2CCCC(=O)N3CC[C@@H](C1)[C@@H]23 | 11.8 µM
COc1ccc(/C=C2/NC(=O)N(CC(=O)Nc3cccc(C)c3)C2=O)cc1O | 9.76 µM
Nc1nc2cc3c(cc2cc1C(=O)NCCc1c[nH]c2ccccc12)OCO3 | 4.31 µM
COc1ccc(CN(C)C[C@H]2Oc3ccc(NC(=O)CCCCCC(=O)Nc4ccccc4N)cc3CC(=O)N([C@H](C)CO)C[C@H]2C)cc1 | 15.4 µM
O=C(Nc1ccc(Br)cc1)c1ccc(F)c(S(=O)(=O)N2CCN(c3ccccn3)CC2)c1 | 7.79 µM
CCCCCCCCNC(C)C(O)c1ccc(SC(C)C)cc1 (stereo unspecified) | 9.79 µM
O=c1cc(-c2ccccc2)oc2ccc3ccccc3c12 | 1.43 µM
C[C@@H]1CN([C@@H](C)CO)C(=O)c2cc(NC(=O)Nc3ccccc3)ccc2O[C@@H]1CN(C)Cc1ccc(C(=O)Nc2ccccc2N)cc1 | 5.75 µM
COc1ccc(OC)c(-c2nnc3n2N=C(c2ccc(OC)c(OC4CCCC4)c2)CS3)c1 | 12.6 µM
CC(C)N1C/C(=C/c2ccsc2)C(=O)/C(=C/c2ccsc2)C1 | 5.52 µM
CCCCCCCCCCCCCCCCCCNc1ccn(C2OC(COP(=O)(O)OCC3OC(n4cc(F)c(=O)[nH]c4=O)CC3O)C(O)C2O)c(=O)n1 (stereo unspecified) | 18.8 µM
CC(=O)Oc1ccc(-c2ccc(C(=O)Nc3cccc(S(=O)(=O)N4CCOCC4)c3)cc2)cc1 | 12.9 µM
CCC1=Nc2cc(C(=O)NCC3CCCO3)ccc2Sc2ccc(Br)cc21 (stereo unspecified) | 6.5 µM
Nc1ccc2oc(-c3cc(Br)ccc3Cl)nc2c1 | 15 µM
CC(=O)c1ccc(N=C2C(=O)Nc3ccccc32)cc1 | 19.3 µM
COc1cc2c(OC(C)=O)c3c(c(-c4ccc5c(c4)OCO5)c2cc1OC)C(=O)OC3 | 2.34 µM
CC1=NN(c2ccccc2)C(=O)/C1=C\C=C\c1ccccc1 | 6.98 µM
O=C1NC(=O)N(Cc2ccco2)C(=O)/C1=C/C=C/c1ccco1 | 6.32 µM

SMILES | AC35
Cc1ccc(OCCNC(=O)c2cccc(S(=O)(=O)NCc3ccccc3)c2)cc1 | 3.98 µM
N#C[C@@H]1[C@H](c2ccc(C#Cc3ccc(F)cc3)cc2)[C@@H](CO)N1C(=O)Nc1ccc(F)cc1 | 5.54 µM
Cc1c(CCOC(=O)CC23CC4CC(CC(C)(C4)C2)C3)sc[n+]1CC(=O)c1ccccc1 | 16.9 µM
CCCCCCCCn1c2c(c(=N)c3c1CCC3)CCCC2 | 5.73 µM
CC(C)c1oc(=O)cc2c1[C@@H](O)[C@H]1OC(=O)[C@@]3(C)CC[C@@H](O)[C@@]2(C)C13 (stereo partly specified) | 4.21 µM
C[C@@H]1O[C@@H](O[C@H]2C[C@@H](O)[C@]3(CO)[C@@H]4C(CC[C@]3(O)C2)[C@@]2(O)CC[C@H](C3COC(=O)C3)[C@@]2(C)C[C@H]4O)[C@H](O)[C@H](O)[C@H]1O (stereo partly specified) | 1.97 µM
CCc1ccc2oc(C(=O)N3CCN(c4ccccc4OC)CC3)cc(=O)c2c1 | 10.7 µM
CCc1cccc2c(C(=O)CN3C(=O)NC4(CCCCC4)C3=O)c[nH]c12 | 14.1 µM
C[C@H]1CN([C@@H](C)CO)S(=O)(=O)c2ccc(C#CC(C)(C)O)cc2O[C@@H]1CN(C)Cc1ccc(-c2ccccc2)cc1 | 1.09 µM
C[C@@H]1CN([C@@H](C)CO)C(=O)c2cccc(N(C)C)c2O[C@@H]1CN(C)Cc1ccc(C(=O)Nc2ccccc2N)cc1 | 39.8 µM
COc1cc(-c2cnc3c(NC=O)cc(-c4cccc(NC(C)=O)c4)cn23)cc(OC)c1OC | 0.298 µM
CN(C)c1ccc(N=Nc2nc3ccccc3n2C)cc1 | 12.5 µM
O=C(CN1C(=O)c2ccccc2S1(=O)=O)c1ccc(F)cc1 | 3.98 µM
O=C(Nc1ccc(OC(=O)N2CCCCC2)cc1)N1CCOCC1 | 4.3 µM
COc1ccc(/C=C2\SC(=O)N(CCCC(=O)Nc3ccc(C(=O)O)cc3)C2=O)cc1 | 0.504 µM
N#CC(C#N)=C1C=CC=CN1/C(=C\c1ccco1)C(=O)c1ccc(Cl)cc1 | 7.6 µM
Nc1cc2c(cc1Br)[nH]c(=O)c1ccccc12 | 43.3 µM
O=C1C(=O)N(Cc2cccs2)c2ccccc21 | 17 µM
COCC(=O)Nc1ccc2c(c1)[C@@H]1C[C@@H](CC(=O)NCc3ccc(-c4ccccc4)cc3)O[C@@H](CO)[C@@H]1O2 | 10.1 µM
Cc1ccc(/C=C2\SC(=S)N(CCCC(=O)NNC(=O)c3ccccc3O)C2=O)cc1 | 2.09 µM
Oc1c(Cl)cc(Cl)c(Cl)c1Cc1c(O)c(Cl)cc(Cl)c1Cl | 35.3 µM
Cc1ccc(C(C)C)c(OCc2ccc(C(=O)N/N=C/c3ccc(O)cc3O)cc2)c1 | 1.46 µM
CN(C)c1ccc(N=Nc2ccc(C(=O)O)cc2)cc1 | 5.73 µM
O=C(NC(=O)c1ccccc1)Nc1ccccc1 | 12.8 µM

Source: PubChem BioAssay AID686920 (Broad Institute, 2013)
